According to patent US4906658A, “Fluoro-sulfones” (Merck Frosst Canada, Inc., priority 1987, dated 1990):
“And” between values parts separate entries of the source, which are not always exact repeats. Equal values may be shown once. Read-outs that look alike come from different tables or passages of the source.

How the values were obtained:
[1] = tested on: leukotrienes C4, D4 and E4 and SRS-A; test: antagonism of leukotrienes C4, D4 and E4 and of SRS-A; conditions: versus closely related compounds within the scope of EP No. 104,885
From the text: The compounds of Formula I are active as antagonists of SRS-A and of leukotriene. The activity of the compounds of Formula I can be detected and evaluated by methods known in the art. See, for example, Kadin, U.S. Pat. No. 4,296,129.

[2] = tested on: antigen (egg albumin)-induced continuous dyspnea in inbred asthmatic rats; test: Asthmatic Rat Assay: duration of continuous dyspnea after aerosolized antigen challenge in sensitized inbred asthmatic rats; format: in vivo; conditions: for ED50: Rattus norvegicus, po, read-out: ED50 p.o. (dose which would inhibit the duration of symptoms by 50%)
From the text: Sensitized inbred "asthmatic rats" challenged with aerosolized antigen respond with symptoms of continuous dyspnea which is partly mediated by serotonin. […] These rats differ from normal rats in that they have non-specific bronchial hyperreactivity to a number of bronchoconstrictor agents (Brunet et al, J. Immunol., 131, 434 (1983)).
Pretreatment with drugs is used to measure the decrease of the duration of continuous dyspnea and, at higher doses, to eliminate the response (piechuta et a1, Immunology, 38, 385 (1979)).
(1) Animals: Male and female inbred asthmatic rats were used between 10-12 weeks of age. Their weights ranged from 190-250 gm (females) and 260-400 gm (males). Rats were matched by sex and littermates between the various treatment groups. Animals were starved overnight. Water was supplied ad lib.
(2) Materials: Egg albumin (EA), grade V, crystallized and lyophilized was obtained from Sigma Chemical Co., St. Louis. Aluminum hydroxide was obtained from the Reheis Chemical Company, Chicago. Methysergide Bimaleate was supplied by Sandoz Ltd., Basel, Switzerland. Serotonin creatinine sulfate was obtained from Calbiochem-Behring Corp., La Jolla, Calif.
(3) Apparatus: The challenge and subsequent respiratory recordings were carried out in a clear
plastic box with internal dimensions 10×6×4 inches. The top of the box was removable; in use, it was held firmly in place by four clamps and an airtight seal was maintained by a soft rubber gasket. […] A Fleisch No. 0000 pneumotachograph was inserted into one end of the box and coupled to a Grass volumetric pressure transducer (PT5-A) which was then connected to a Beckman Type R Dynograph through appropriate couplers. While aerosolizing the antigen, the outlets were open and the pneumotachograph was isolated from the chamber. The outlets were closed and the pneumotachograph and the chamber were connected during the recordings of the respiratory patterns. For challenge, 2 mL of a 3% solution of antigen in saline was placed into each nebulizer and the aerosol was generated with air from a small Potter diaphragm pump operating at 10 psi and a flow of 8 liters/min.
(4) Procedure: Rats were sensitized by injecting (s.c.) 1 mL of suspension containing 1 mg albumin (EA) and 200 mg aluminum hydroxide in saline. They were used between days 12 and 24 post sensitization. Rats were exposed to aerosol of 3% EA in saline for exactly 1 minute, then their respiratory profiles were recorded for a further 30 minutes. The duration of continuous dyspnea was measured from the respiratory recordings.
Compounds were generally administered either orally 1, 2, 4 or 6 hours prior to challenge or intravenously 2 minutes prior to challenge. Dose volume for oral treatments was 10 mL/kg and for i.v. treatments 1 mL/kg. Compounds were dissolved in distilled water. Methysergide bimaleate was dissolved in saline and administered intravenously at dose of 3 μg/kg 5 minutes before antigen challenge.
The sensitivity of various drug treatments were determined in terms of the decrease in duration of dyspnea in comparison with a group of vehicle treated controls. Usually, a compound was evaluated at a series of doses and an ED50 value was determined. This was defined as the dose (mg/kg) which would inhibit the duration of symptoms by 50%.

[3] = tested on: antigen (egg albumin)-induced continuous dyspnea in inbred asthmatic rats; conditions: 3 μg/kg i.v. before challenge; cited from earlier work
[4] = 1.5 mg/kg p.o., 1 hour before challenge

CCCc1c(O)c(C(C)=O)cc(F)c1OCCCS(=O)(=O)c1ccc([C@H](O)[C@@H](C)CC(=O)O)cc1 (relative stereo) [Compound I, (4R*,3S*)-4-[4-(3-(4-acetyl-6-fluoro-3-hydroxy-2-propylphenoxy)propyl-sulfonyl)phenyl]-4-hydroxy-3-methylbutanoic acid]
potency as antagonists of leukotrienes C4, D4 and E4 and of SRS-A [1]: unexpectedly much more potent | Inhib. of Dyspnea ([2]; 0.05 mg/kg p.o., 2 hours before challenge): 40% | Inhib. of Dyspnea ([2]; 0.15 mg/kg p.o., 2 hours before challenge): 48% | Inhib. of Dyspnea ([2]; 0.5 mg/kg p.o., 2 hours before challenge): 57% | Inhib. of Dyspnea [2, 4]: 55% | Inhib. of Dyspnea ([2]; 1.5 mg/kg p.o., 2 hours before challenge): 59% and 65% | Inhib. of Dyspnea ([2]; 1.5 mg/kg p.o., 4 hours before challenge): 65% | Inhib. of Dyspnea ([2]; 1.5 mg/kg p.o., 6 hours before challenge): 63% | ED50 ([2]; 2 hrs before challenge): 0.21 mg/kg | absorption by the oral route ([2]; judged from activity p.o. in the Asthmatic Rat Assay): good absorption by the oral route | duration of action ([2]; p.o., in words): satisfactory duration of action | potency ([2]; p.o., in words): high potency | activity compared with the closely related reference compounds ([2]; versus Ex. 77 and Ex. 93 of EP 104,885, p.o.): significantly more active than the closely related reference compounds

CCCc1c(OCCCS(=O)(=O)c2ccc([C@H](O)[C@@H](C)CC(=O)O)cc2)ccc(C(C)=O)c1O (relative stereo) [Ex. 77, (4R*,3S*)-4-[4-(3-(4-acetyl-3-hydroxy-2-propylphenoxy)propylsulfonyl)phenyl]-4-hydroxy-3-methybutanoic acid, reference compound]
Inhib. of Dyspnea ([2]; 0.15 mg/kg p.o., 1 hour before challenge): 33% | Inhib. of Dyspnea ([2]; 0.5 mg/kg p.o., 1 hour before challenge): 29% | Inhib. of Dyspnea [2, 4]: 29% | Inhib. of Dyspnea ([2]; 5.0 mg/kg p.o., 1 hour before challenge): 44% | ED50 ([2]; 1 hr before challenge): > 5 mg/kg

CCCc1c(O)c(C(C)=O)cc(F)c1OCCCSc1ccc([C@H](O)[C@@H](C)CC(=O)O)cc1 (relative stereo) [Ex. 93, (4R*,3S*)-4-[4-(3-(4-acetyl-6-fluoro-3-hydroxy-2-propylphenoxy)propylthio)phenyl]-4-hydroxy-3-methylbutanoic acid, reference compound]
Inhib. of Dyspnea [2, 4]: 26%

CC[C@@H](CO)NC(=O)[C@@H]1C=C2c3cccc4c3c(cn4C)C[C@H]2N(C)C1 [methysergide]
blocking of the serotonin component of continuous dyspnea [3]: completely blocked
